Values after ≈ are worked out from the molar mass of the structure shown.
Tested on: P388
Assay: Cytotoxicity against mouse P388 cells
Format: functional, cell-based

| SMILES | IC50 [µg/mL] |
| --- | --- |
| C[S@+]([O-])C[C@](C)(O)[C@H]1OC(=O)C=C2[C@@]13O[C@@H]3[C@H]1OC(=O)[C@@]3(C)C=CC[C@@]2(C)[C@@H]13 (stereo in doubt; 2) | 0.23 (≈ 0.563 µM) |
| C[S@+]([O-])C[C@](C)(O)[C@H]1OC(=O)C=C2[C@@]13O[C@@H]3[C@H]1OC(=O)[C@@]3(C)C=CC[C@@]2(C)[C@@H]13 (stereo in doubt; 1) | 0.52 (≈ 1.27 µM) |

From ChEMBL document CHEMBL1159348, “S(R)-podolactone D, a new sulfoxide-containing norditerpene dilactone from Podocarpus macrophyllus var. maki” (J Nat Prod, 2003)
